Counter-ions that a name gives are not always drawn.

3 compounds from patent publication US8865672B2, “Prevention of tissue ischemia and related methods” (The United States of America, as represented by the …, priority 2006, dated 2014) can be followed below.

The test system of data set [1] is cutaneous perfusion in mice. The data set is classed as in vivo, mouse. The protocol: Skin blood flow was measured using laser Doppler imaging (MoorLD1-2λ, Moor Instruments, Devon, England). Briefly, animals were placed in a prone position on a heating pad, and anesthesia was provided by 2% inhalation isoflurane in a 50:50 mixture of oxygen to room air. Core temperature was monitored by rectal probe and was further controlled with a heat lamp. The hair of the dorsum of the animals was clipped and depilated with Nare™ and a template with a 1 cm^2 area used to trace a region of interest (ROI). After equilibration to the experimental set-up analysis of cutaneous blood flow was obtained. The following instrument settings were used: override distance 21 cm; scan time 4 msec/pixel. Results are expressed as the change percent control from baseline of the ROI.

Data set [2] deals with blood pressure and pulse in mice. The data set can be described thus: Blood pressure and pulse measurements (tail cuff). The data set is classed as in vivo, mouse. The protocol:
Mean systolic, diastolic and arterial blood pressure (BP) and mean pulse was measured in age and sex matched mice using a computerized tail cuff system (Hatteras Systems, MC4000 Blood Pressure Analysis System, Cary, N.C.). The mice were allowed to acclimate to the apparatus for 5 min prior to the start of measurement. Each animal underwent a cycle of 10 preliminary and 50 experimental pressures measurements for data acquisition and data calculation. Animals were acclimated to the measuring system and protocol for 4 days with treatment with data acquisition being performed on the 5th day. Pressures recordings were performed at the same time each day. Data was accepted if the mouse had valid readings for at least 20 consecutive pulse beats. All studies were performed at the same hour each day.
Respirations were monitored continuously monitored by direct observation of the animal. Body core temperature was measured via rectal probe. Temperature control was performed using a water-circulating warming surface and heating lamp. Following a 15 minute period of stabilization mean systolic, diastolic and arterial blood pressure and mean pulse measurements were determined.

The test system of data set [3] is human platelets. The data set can be described thus: Thrombin-induced human platelet aggregation. The data set is classed as cell-based. Particulars: GGTI-298 preincubation. The method, boiled down:
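Washed human platelets in Tyrode's buffer pH 7.4 (2×10^5/μl) are stirred at 1200 rpm and 37 °C, and optical aggregation is followed for 5 min; under static conditions, A400 is tracked for 5 min instead. TSP1 agents or 1 μM peptide C6d are pre-incubated for 15 min before thrombin ± DEA/NO (10 μM).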

Data set [4] deals with human platelets. Nature of the data set: Human platelet adhesion assay. The data set is classed as cell-based. Conditions: fibrinogen vs collagen, 10 μM. The protocol: Bacteriological Petri dishes (35×10 mm, Becton Dickinson Labware) were pre-coated with collagen (3 μg/ml) or fibrinogen (15 μg/mL) overnight. Following aspiration of non-adherent matrix, dishes were blocked with 1% BSA. Fresh platelets were washed and suspended in Tyrode's buffer and allowed to adhere for 30 minutes. Plates were washed with PBS, fixed with 0.5% glutaraldehyde and stained with 0.02% toluidine blue. Adherent platelets were counted microscopically. In some experiments platelets were pre-incubated with the Rap1 geranylgeranyltransferase inhibitor GGTI-298 (10 μM) for 30 minutes prior to initiating adhesion.

A further data set deals with Rap1. The data set can be described thus: Rap1 pulldown assay in platelets. The data set is classed as cell-based, human. Particulars: thrombin. As for the experimental part: Platelets were diluted to 5×10^8 platelets/mL in Tyrode's buffer and treated with various reagents for the indicated times. Immediately following treatment, platelets were pelleted at 13,000 g for 30 seconds at 4° C. and resuspended in ice-cold lysis buffer containing 20 mM HEPES (pH 7.5), 100 mM NaCl, 10 mM EGTA, 20 mM MgCl2, 8 mM α-glycerophosphate, 1% Triton X-100, 1 mM phenylmethylsulfonylfluoride, 40 mM NaF, 1 mM Na3VO4, 10 μg/mL aprotinin, and 10 μg/mL leupeptin. Lysates were centrifuged at 13,000 g for 5 minutes at 4° C. and the supernatants were incubated for 15 minutes on a tumbler at 4° C. with glutathione Sepharose 4B beads (Amersham) prebound with a GST-Ral GDS RBD fusion protein (kind gift of J. Silvio Gutkind, NIH, Bethesda, Md.). Bead complexes were washed by centrifugation at 6,000 g for 30 seconds at 4° C. followed by resuspension in 0.5 mL lysis buffer; 2 washes were performed for each sample. After the second wash, beads were resuspended in an equal volume of 2×SDS sample buffer and stored at −20° C. For Western analysis, bead-bound proteins in sample buffer were boiled for 10 minutes and subjected to electrophoresis on NuPAGE 10% Bis-Tris gels (Invitrogen, Carlsbad, Calif.), transferred to Immobilon-P PVDF membranes (Millipore, Billerica, Mass.), and blotted with rabbit polyclonal anti-Rapt (sc-65; Santa Cruz Biotechnology, Santa Cruz, Calif.).

Turning to `CNC[C@H](O)c1ccc(O)c(O)c1` [epinephrine, Epinephrine hydrochloride], in data set [1] (wild type and TSP1 null animals, epinephrine bolus), the cutaneous perfusion entry is on record as “increased cutaneous perfusion”. Also, the lethality entry in data set [2] (CD47 null animals, 0.05 μg/animal i.p.) was “fatal”. The mean arterial pressure result in data set [2] (TSP1 null animals, 0.05 μg/animal i.p.) is on record as “did not show a significant increase”; in data set [2] (wild type animals, 0.05 μg/animal i.p.) it was “expected increase in mean arterial pressure”. The mean pulse result in data set [2] (after i.p. challenge) is listed as “moderately increased”.
As for `COC(=O)[C@H](CC(C)C)NC(=O)c1ccc(NC[C@@H](N)CS)cc1-c1cccc2ccccc12` [GGTI-298, reference compound], the “platelet aggregation at high shear in the presence of NO” value with human platelets [3] was “preferentially delayed platelet aggregation”. In the data set on human platelets [4], the “thrombin-stimulated adhesion of platelets” value is given as “selective in adhesion assays for blocking thrombin-stimulated adhesion of platelets on fibrinogen”. Moreover, the “Rap1 activation (GTP loading)” value in the data set with Rap1 is “inhibits basal and partially inhibits thrombin-stimulated Rap1 activation”.
As to `C[N+](C)(C)CCCCCC[N+](C)(C)C` [hexamethonium, hexamethonium chloride], the “cutaneous perfusion and survival after autonomic blockade” value in data set [1] (wild type and TSP1 null animals under isoflurane, 30 μg/gram i.v.) is “decreases in cutaneous perfusion and eventual cardiovascular collapse and death”.
